In brackets after ≈: the same amount, converted by molar mass.
Experiments:
NRK [1] = experiment: Effect on morphological reversion in src transformed NRK cells at 3 ug/mL; assay type: functional; conditions: Rattus norvegicus
Osteoclast = experiment: Induction of apoptosis in mouse osteoclasts; assay type: functional
[2] = target: T1, Isoleucine--tRNA ligase, cytoplasmic (Homo sapiens, UniProt P41252); experiment: Inhibition of IleRS
T1 sequence (P41252 whole entry): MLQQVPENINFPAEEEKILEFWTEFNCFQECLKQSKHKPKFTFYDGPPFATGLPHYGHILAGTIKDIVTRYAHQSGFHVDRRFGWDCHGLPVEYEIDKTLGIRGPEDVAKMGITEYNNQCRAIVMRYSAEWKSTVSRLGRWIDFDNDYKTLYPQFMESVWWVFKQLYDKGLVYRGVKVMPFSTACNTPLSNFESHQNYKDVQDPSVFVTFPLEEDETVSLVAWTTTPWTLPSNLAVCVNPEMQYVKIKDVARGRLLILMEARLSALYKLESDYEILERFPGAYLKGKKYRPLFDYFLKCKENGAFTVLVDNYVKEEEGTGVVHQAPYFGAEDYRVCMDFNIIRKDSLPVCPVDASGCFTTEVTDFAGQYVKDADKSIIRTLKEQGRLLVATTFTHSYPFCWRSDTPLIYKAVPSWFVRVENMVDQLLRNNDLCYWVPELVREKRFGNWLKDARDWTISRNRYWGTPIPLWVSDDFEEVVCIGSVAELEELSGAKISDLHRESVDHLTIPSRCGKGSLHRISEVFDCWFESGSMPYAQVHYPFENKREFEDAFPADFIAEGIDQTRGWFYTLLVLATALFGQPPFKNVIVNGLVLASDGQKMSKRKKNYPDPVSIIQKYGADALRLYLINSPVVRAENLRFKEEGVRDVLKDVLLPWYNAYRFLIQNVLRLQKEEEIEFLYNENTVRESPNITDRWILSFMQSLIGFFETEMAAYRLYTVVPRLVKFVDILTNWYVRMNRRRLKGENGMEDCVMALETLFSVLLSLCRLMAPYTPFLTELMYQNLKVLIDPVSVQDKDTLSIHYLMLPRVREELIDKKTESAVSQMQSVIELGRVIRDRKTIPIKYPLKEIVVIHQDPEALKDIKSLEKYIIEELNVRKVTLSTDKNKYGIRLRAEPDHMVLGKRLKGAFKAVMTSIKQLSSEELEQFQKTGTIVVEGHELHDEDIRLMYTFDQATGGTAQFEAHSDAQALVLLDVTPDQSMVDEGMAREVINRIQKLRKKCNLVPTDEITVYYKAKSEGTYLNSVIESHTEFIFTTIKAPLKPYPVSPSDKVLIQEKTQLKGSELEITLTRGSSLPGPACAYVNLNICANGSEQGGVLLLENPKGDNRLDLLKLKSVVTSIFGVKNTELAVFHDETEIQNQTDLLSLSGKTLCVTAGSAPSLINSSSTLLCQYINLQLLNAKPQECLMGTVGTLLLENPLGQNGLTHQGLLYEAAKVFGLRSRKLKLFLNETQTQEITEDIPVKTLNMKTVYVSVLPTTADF

NRK [3] = experiment: Toxicity against src transformed NRK cells at 100 ug/mL; assay type: cell-based; conditions: rat
NRK [4] = experiment: Effect on morphological reversion in src transformed NRK cells at 10 ug/mL; assay type: functional; conditions: Rattus norvegicus
NRK [5] = experiment: Effect on morphological reversion in src transformed NRK cells at 30 ug/mL; assay type: functional; conditions: Rattus norvegicus
NRK [6] = experiment: Effect on morphological reversion in src transformed NRK cells at 0.3 ug/mL; assay type: functional; conditions: Rattus norvegicus
NRK [7] = experiment: […] morphological reversion in src transformed NRK cells; assay type: functional, cell-based; conditions: Rattus norvegicus
NRK [8] = experiment: Effect on morphological reversion in src transformed NRK cells at 100 ug/mL; assay type: functional; conditions: Rattus norvegicus
NRK [9] = experiment: Effect on morphological reversion in src transformed NRK cells at 1 ug/mL; assay type: functional; conditions: Rattus norvegicus

## CC(/C=C/[C@H](OC(=O)CCC(=O)O)[C@@H](C)/C=C/C(=O)O)=C\C[C@H]1O[C@@]2(CC[C@H](C)[C@H](/C=C/C(C)=C/C(=O)O)O2)CC[C@@H]1C
NRK [1]
  inhibition at 3 µg/mL: < 10%
Osteoclast
  Activity: 12.4 µg/mL
[2]
  IC50: > 1660 nM
NRK [3]
  Activity: Toxic
NRK [4]
  inhibition at 10 µg/mL: < 10%
NRK [5]
  inhibition at 30 µg/mL: < 10%

## CCCC[C@@]1(OC(=O)CCC(=O)O)CC[C@]2(CC[C@H](C)[C@@H](C/C=C(C)/C=C/[C@H](O)[C@@H](C)/C=C/C(=O)O)O2)O[C@H]1/C=C/C(C)=C/C(=O)O [REVEROMYCIN A]
NRK [6]
  inhibition at 0.3 µg/mL: < 10%
NRK [7]
  EC50: 1.58 mg/L (≈ 2.39 µM)
NRK [1]
  inhibition at 3 µg/mL: 20%
NRK [8]
  inhibition at 100 µg/mL: > 80%
Osteoclast
  Activity: 0.06 µg/mL
[2]
  IC50: 4.46 nM
NRK [4]
  inhibition at 10 µg/mL: 50%
NRK [9]
  inhibition at 1 µg/mL: 10%
NRK [5]
  inhibition at 30 µg/mL: > 80%

From ChEMBL document CHEMBL1157437, “Synthesis and biological activities of reveromycin A and spirofungin A derivatives” (Bioorg Med Chem Lett, 2008)
